Target: Axl (Homo sapiens (Human), UniProt P30530)
Test: Phospho-Akt in-cell Western assay (Axl-antibody cross-linking stimulation)
Type: cell-based
Conditions: inhibition of Axl activity
In short: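 HeLa cells on poly-L-lysine, starved 24 hrs with Axl/Fc, pre-treated with compound 1 hr at 37° C., then stimulated 5 min with Axl primary/secondary antibody cluster. Fixed cells probed for phospho-Akt by chemiluminescent in-cell Western; signal normalized to crystal violet cell number.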

[1] = Hela cells, phospho-Akt readout, Table 1, formula (Ia1)
[2] = phospho-Akt in-cell Western assay
[3] = Hela cells, phospho-Akt readout, Table 5, formula (Ia3)

Axl, sequence (P30530 26-894): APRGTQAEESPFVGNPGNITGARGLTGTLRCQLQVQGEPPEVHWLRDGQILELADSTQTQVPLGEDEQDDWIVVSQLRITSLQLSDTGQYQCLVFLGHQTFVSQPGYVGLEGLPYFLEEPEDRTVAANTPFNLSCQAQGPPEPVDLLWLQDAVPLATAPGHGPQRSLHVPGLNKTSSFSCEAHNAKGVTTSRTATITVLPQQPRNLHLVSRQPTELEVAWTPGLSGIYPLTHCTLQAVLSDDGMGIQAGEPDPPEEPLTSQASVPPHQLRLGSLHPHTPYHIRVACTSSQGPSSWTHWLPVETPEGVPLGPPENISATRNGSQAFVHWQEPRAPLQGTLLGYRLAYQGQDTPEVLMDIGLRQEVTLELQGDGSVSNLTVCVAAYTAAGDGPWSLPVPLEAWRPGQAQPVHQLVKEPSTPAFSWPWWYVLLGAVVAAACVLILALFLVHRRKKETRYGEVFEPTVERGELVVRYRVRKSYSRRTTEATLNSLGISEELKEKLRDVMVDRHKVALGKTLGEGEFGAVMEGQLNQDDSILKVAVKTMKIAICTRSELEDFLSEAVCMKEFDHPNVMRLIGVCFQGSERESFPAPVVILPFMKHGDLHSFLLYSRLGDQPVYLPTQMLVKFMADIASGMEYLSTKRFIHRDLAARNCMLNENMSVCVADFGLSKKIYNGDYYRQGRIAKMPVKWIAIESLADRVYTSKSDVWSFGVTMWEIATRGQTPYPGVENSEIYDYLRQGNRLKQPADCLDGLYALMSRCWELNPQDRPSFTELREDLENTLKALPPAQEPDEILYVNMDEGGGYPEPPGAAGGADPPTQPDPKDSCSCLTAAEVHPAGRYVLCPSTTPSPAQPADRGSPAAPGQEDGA

IC50 [1] [nM] | IC50 [2] [nM] | SMILES | further results
< 1000 |  | Nc1nc(Nc2ccc(OCCN3CCCC3)cc2)nn1-c1ncnc2ccsc12 [Compound 54, N^3-(4-(2-(pyrrolidin-1-yl)ethoxy)phenyl)-1-(thieno[3,2-d]pyrimidin-4-yl)-1H-1,2,4-triazole-3,5-diamine] | 
1000 to 10000 |  | Nc1nc(Nc2ccc(OCCN3CCCC3)cc2)nn1-c1nc(N2CCOCC2)nc2ccccc12 [Compound 38, 1-(2-morpholinoquinazolin-4-yl)-N^3-(4-(2-(pyrrolidin-1-yl)ethoxy)phenyl)-1H-1,2,4-triazole-3,5-diamine] | 
 | 1000 to 10000 | COc1cc2nc(Cl)nc(-n3nc(Nc4ccc(N5CCN(C6CC7CCC6C7)CC5)cc4)nc3N)c2cc1OC (stereo not drawn) [Compound 101, N^3-(4-(4-(bicyclo[2.2.1]heptan-2-yl)piperazin-1-yl)phenyl)-1-(2-chloro-6,7-dimethoxyquinazolin-4-yl)-1H-1,2,4-triazole-3,5-diamine] | 
> 20000 |  | Nc1nc(Nc2ccc(OCCN3CCCC3)cc2)nn1-c1ccc(S(N)(=O)=O)cc1 [Compound 8, 4-(5-amino-3-(4-(2-(pyrrolidin-1-yl)ethoxy)phenylamino)-1H-1,2,4-triazol-1-yl)benzenesulfonamide] | 
< 1000 |  | Nc1nc(Nc2ccc(OCCN3CCCC3)c(Cl)c2)nn1-c1ccccn1 [Compound 4, N^3-(3-chloro-4-(2-(pyrrolidin-1-yl)ethoxy)phenyl)-1-(pyridin-2-yl)-1H-1,2,4-triazole-3,5-diamine] | 
 | < 1000 | Nc1nc(Nc2ccc(N3CCN(C4CC5CCC4C5)CC3)cc2)nn1-c1nccc2occc12 (stereo not drawn) [Compound 131, N^3-(4-(4-(bicyclo[2.2.1]heptan-2-yl)piperazin-1-yl)phenyl)-1-(furo[3,2-c]pyridin-4-yl)-1H-1,2,4-triazole-3,5-diamine] | 
 | > 20000 | Cc1csc2c(-n3nc(Nc4ccc(N5CCN([C@H]6CC7CCC6C7)CC5)cc4)nc3N)nc(-c3ccc4c(c3)OCO4)nc12 (stereo partly drawn) [Compound 236, 1-(7-methyl-2-benzo[d][1,3]dioxole-5-ylthieno[3,2-d]pyrimidin-4-yl)-N^3-(4-(4-((2S)-bicyclo[2.2.1]heptan-2-yl)piperazin-1-yl)phenyl)-1H-1,2,4-triazole-3,5-diamine] | 
1000 to 10000 |  | Nc1nc(Nc2ccc(OCCN3CCCC3)cc2)nn1-c1ncccc1C(F)(F)F [Compound 29, N^3-(4-(2-(pyrrolidin-1-yl)ethoxy)phenyl)-1-(3-(trifluoromethyl)pyridin-2-yl)-1H-1,2,4-triazole-3,5-diamine] | 
< 1000 |  | COc1cc2nc(Cl)nc(-n3nc(Nc4ccc(OCCN5CCCC5)cc4)nc3N)c2cc1OC [Compound 44, 1-(2-chloro-6,7-dimethoxyquinazolin-4-yl)-N^3-(4-(2-(pyrrolidin-1-yl)ethoxy)phenyl)-1H-1,2,4-triazole-3,5-diamine] | 
 |  | COc1ccc2nc(Cl)c(-n3nc(Nc4ccc(N5CCC(N6CCCC6)CC5)c(F)c4)nc3N)nc2c1 [Compound 256, 1-(2-chloro-6-methoxy-quinoxalin-3-yl)-N^3-(3-fluoro-4-(4-(pyrrolidin-1-yl)piperidin-1-yl)phenyl)-1H-1,2,4-triazole-3,5-diamine] | IC50 [3]: < 1000 nM
< 1000 |  | Nc1nc(Nc2ccc(OCCN3CCCC3)cc2)nn1-c1nc(Cl)nc2ccsc12 [Compound 177, 1-(2-chlorothieno[3,2-d]pyrimidin-4-yl)-N^3-(4-(2-pyrrolidin-1-ylethoxy)phenyl)-1H-1,2,4-triazole-3,5-diamine] | 
 | 1000 to 10000 | CCN1CCN(c2cc(Nc3nc(N)n(-c4ncnc5cc(OC)c(OC)cc45)n3)ccc2Cl)CC1 [Compound 119, N-(4-chloro-3-(4-ethylpiperazin-1-yl)phenyl)-1-(6,7-dimethoxyquinazolin-4-yl)-1H-1,2,4-triazole-3,5-diamine] | 
 |  | COc1cc2ncnc(-n3nc(Nc4ccc(OC5CCCN(C)C5)cc4)nc3N)c2cc1OC (stereo not drawn) [Compound 153, 1-(6,7-dimethoxyquinazolin-4-yl)-N^3-(4-(1-methylpiperidin-3-yloxy)phenyl)-1H-1,2,4-triazole-3,5-diamine] | IC50 [3]: < 1000 nM
 | 1000 to 10000 | Cc1csc2c(-n3nc(Nc4ccc(N5CCN([C@H]6CC7CCC6C7)CC5)cc4)nc3N)nc(/C=C/CN3CCOCC3)nc12 (stereo partly drawn) [Compound 241, 1-((E)-7-methyl-2-(3-(morpholin-4-yl)prop-1-enyl)thieno[3,2-d]pyrimidin-4-yl)-N^3-(4-(4-((2S)-bicyclo[2.2.1]heptan-2-yl)piperazin-1-yl)phenyl)-1H-1,2,4-triazole-3,5-diamine] | 
 |  | COc1cc2ncnc(-n3nc(Nc4ccc5c(c4)CCC(N4CCCC4)CC5)nc3N)c2cc1OC (stereo not drawn) [Compound 220, 1-(6,7-dimethoxy-quinazolin-4-yl)-N^3-(7-pyrrolidin-1-yl-6,7,8,9-tetrahydro-5H-benzo[7]annulene-2-yl)-1H-1,2,4-triazole-3,5-diamine] | IC50 (Hela cells, phospho-Akt readout, Table 7, formula (Ia4)): < 1000 nM
 |  | Nc1nc(Nc2ccc(N3CCOCC3)cc2)n(-c2nccc3ccccc23)n1 [Compound 157, 1-(isoquinolin-1-yl)-N^5-(4-morpholinophenyl)-1H-1,2,4-triazole-3,5-diamine] | IC50 (Hela cells, phospho-Akt readout, Table 6, formula (Ib3)): > 20000 nM
 | 1000 to 10000 | Cc1nc(-n2nc(Nc3ccc(N4CCN(C5CC6CCC5C6)CC4)cc3)nc2N)c2c(C)c(C)sc2n1 (stereo not drawn) [Compound 137, N^3-(4-(4-(bicyclo[2.2.1]heptan-2-yl)piperazin-1-yl)phenyl)-1-(2,5,6-trimethylthieno[2,3-d]pyrimidin-4-yl)-1H-1,2,4-triazole-3,5-diamine] | 
 |  | COc1cc2ncnc(-n3nc(Nc4ccc(N5CCOCC5)cc4)nc3N)c2cc1OC [Compound 158, 1-(6,7-dimethoxyquinazolin-4-yl)-N^3-(4-morpholinophenyl)-1H-1,2,4-triazole-3,5-diamine] | IC50 [3]: < 1000 nM
 | < 1000 | Cc1cc(N2CCN(C3CC4CCC3C4)CC2)ccc1Nc1nc(N)n(-c2ncnc3c(C)csc23)n1 (stereo not drawn) [Compound 202, 1-(7-methylthieno[3,2-d]pyrimidin-4-yl)-N^3-(2-methyl-4-(4-(bicyclo[2.2.1]heptan-2-yl)-piperazin-1-yl)phenyl)-1H-1,2,4-triazole-3,5-diamine] | 
 | < 1000 | COc1cc2cnc(-n3nc(Nc4ccc(N5CCN(C)CC5)cc4)nc3N)nc2cc1OC [Compound 180, 1-(6,7-dimethoxyquinazolin-2-yl)-N^3-(4-(4-methylpiperazin-1-yl)phenyl)-1H-1,2,4-triazole-3,5-diamine] | 
 |  | COc1cc2ncnc(-n3nc(Nc4ccc(N5CCOCC5)c(Cl)c4)nc3N)c2cc1OC [Compound 159, N^3-(3-chloro-4-morpholinophenyl)-1-(6,7-dimethoxyquinazolin-4-yl)-1H-1,2,4-triazole-3,5-diamine] | IC50 [3]: < 1000 nM
> 20000 |  | Nc1nc(Nc2ccc(OCCN3CCCC3)cc2)nn1-c1ncccc1Cl [Compound 18, 1-(3-chloropyridin-2-yl)-N^3-(4-(2-(pyrrolidin-1-yl)ethoxy)phenyl)-1H-1,2,4-triazole-3,5-diamine] | 
< 1000 |  | COc1cc2ccnc(-n3nc(Nc4ccc(OCCN5CCCC5)cc4)nc3N)c2cc1OC [Compound 77, 1-(6,7-dimethoxyisoquinolin-1-yl)-N^3-(4-(2-(pyrrolidin-1-yl)ethoxy)phenyl)-1H-1,2,4-triazole-3,5-diamine] | 
 | < 1000 | Cc1nnc(-n2nc(Nc3ccc(N4CCN(C5CC6CCC5C6)CC4)c(F)c3)nc2N)c2sccc12 (stereo not drawn) [Compound 203, 1-(4-methylthieno[3,2-d]pyridazin-7-yl)-N^3-(3-fluoro-4-(4-(bicyclo[2.2.1]heptan-2-yl)-piperazin-1-yl)phenyl)-1H-1,2,4-triazole-3,5-diamine] | 

Reference: US10166216B2 (Rigel Pharmaceuticals, Inc., priority 2006, dated 2019)
